The values that follow come from ChEMBL document CHEMBL3392983, “Synthesis, antimicrobial activity and molecular docking of novel tetracyclic scaffolds incorporating a flavonoid framework with medium sized oxygen heterocycles” (2015).

Values after ≈ are worked out from the molar mass of the structure shown.

Holding throughout (format): functional
For experiment [1], the system named is Staphylococcus aureus. Put plainly: Antimicrobial activity against Staphylococcus aureus ATCC 25923 assessed as inhibition of microbial growth incubated for 24 hrs by broth dilution method. The conditions noted are these: ATCC 25923, 24 h. For orientation: In broth dilution the organism is exposed to a series of concentrations in liquid medium.
The test system of another experiment is Klebsiella pneumoniae. Kind of experiment: Antimicrobial activity against Klebsiella pneumoniae ATCC 10031 assessed as inhibition of microbial growth incubated for 24 hrs by broth dilution method. The note with it: ATCC 10031, 24 h.
Experiment [2] deals with Bacillus subtilis. Kind of experiment: Bactericidal activity against Bacillus subtilis ATCC 6633 assessed as microbial killing during 18 hrs post sub-culture onto drug-free solid media by broth dilution method. The note with it: ATCC 6633, 18 h, read-out: MBC99.9.
The test system of experiment [3] is Pseudomonas aeruginosa. Kind of experiment: Bactericidal activity against Pseudomonas aeruginosa ATCC 10145 assessed as microbial killing during 18 hrs post sub-culture onto drug-free solid media by broth dilution method. The note with it: ATCC 10145, 18 h, read-out: MBC99.9.
A further experiment concerns Candida albicans. Put plainly: Antimicrobial activity against Candida albicans ATCC 10231 assessed as inhibition of microbial growth incubated for 72 hrs by broth dilution method. The conditions noted are these: ATCC 10231, 72 h.
The subject of another experiment is Candida tropicalis. Put plainly: Antimicrobial activity against Candida tropicalis ATCC 750 assessed as inhibition of microbial growth incubated for 72 hrs by broth dilution method. The conditions noted are these: ATCC 750, 72 h.
Experiment [4] relates to Escherichia coli. Kind of experiment: Antimicrobial activity against Escherichia coli ATCC 10536 assessed as inhibition of microbial growth incubated for 24 hrs by broth dilution method. The note with it: ATCC 10536, 24 h.
For experiment [5], the system named is Bacillus subtilis. Put plainly: Antimicrobial activity against Bacillus subtilis ATCC 6633 assessed as inhibition of microbial growth incubated for 24 hrs by broth dilution method. The note with it: ATCC 6633, 24 h.
Experiment [6] concerns Escherichia coli. Kind of experiment: Bactericidal activity against Escherichia coli ATCC 10536 assessed as microbial killing during 18 hrs post sub-culture onto drug-free solid media by broth dilution method. The conditions noted are these: ATCC 10536, 18 h, read-out: MBC99.9.
In experiment [7] the test system is Staphylococcus aureus. Kind of experiment: Bactericidal activity against Staphylococcus aureus ATCC 25923 assessed as microbial killing during 18 hrs post sub-culture onto drug-free solid media by broth dilution method. The note with it: ATCC 25923, 18 h, read-out: MBC99.9.
Experiment [8] deals with Pseudomonas aeruginosa. Kind of experiment: Antimicrobial activity against Pseudomonas aeruginosa ATCC 10145 assessed as inhibition of microbial growth incubated for 24 hrs by broth dilution method. The note with it: ATCC 10145, 24 h.

For orientation: MIC means the smallest concentration in the dilution series that meets the test's criterion for growth inhibition. Take `O=c1c2c(oc3ccccc13)-c1ccccc1OCCO2`: the MIC in the experiment with Staphylococcus aureus [1] is 0.142 µM; with Klebsiella pneumoniae, 0.107 µM; in the experiment on Candida albicans, more than 0.714 µM; with Candida tropicalis, more than 0.714 µM; in the experiment on Escherichia coli [4], 0.108 µM; with Bacillus subtilis [5], 0.071 µM. For the same compound, in the experiment with Pseudomonas aeruginosa [8], the MIC was 0.125 µM. Besides, the MBC in the experiment on Bacillus subtilis [2] was determined as 0.071 µM (≈ 0.0199 µg/mL); with Pseudomonas aeruginosa [3], 0.071 µM (≈ 0.0199 µg/mL); in the experiment on Escherichia coli [6] it was 0.085 µM (≈ 0.0238 µg/mL); in the experiment on Staphylococcus aureus [7] it was 0.142 µM (≈ 0.0398 µg/mL).
